One molecule from patent US6136992A, “2-alkoxy estradiols and derivatives thereof” (The United States of America as represented by the …, priority 1998, dated 2000) can be followed below.

Where only a bound is given, the exact number is not on record here.

The assay has as its system HL-60(TB). The assay can be described thus: NCI screen, leukemia. The assay is classed as cell-based. Particulars: Homo sapiens, read-out: Log10 GI50, HL-60(TB) (converted).

What is called GI50 is the concentration at which growth is held to half of that of the control. In the case of `C[C@]12CC[C@@H]3c4cc(OCC(F)(F)F)c(O)cc4C(=NO)C[C@H]3[C@@H]1CC[C@@H]2O` [Compound 12, 2-(2',2', 2'-Trifluoroethoxy)-6-Hydroximino-Estra-1,3,5(10)-Triene-3,17β-Diol], the GI50 is below 10 nM.
